Results reported in the Kinase Knowledgebase extract (Sharma et al. 2016).

These compounds were tested against PIK3CG (human) (UniProt P48736) (assay: Inhibition of PIK3CG Kinase Activity).
PIK3CG (human), sequence (P48736 whole entry, looked up): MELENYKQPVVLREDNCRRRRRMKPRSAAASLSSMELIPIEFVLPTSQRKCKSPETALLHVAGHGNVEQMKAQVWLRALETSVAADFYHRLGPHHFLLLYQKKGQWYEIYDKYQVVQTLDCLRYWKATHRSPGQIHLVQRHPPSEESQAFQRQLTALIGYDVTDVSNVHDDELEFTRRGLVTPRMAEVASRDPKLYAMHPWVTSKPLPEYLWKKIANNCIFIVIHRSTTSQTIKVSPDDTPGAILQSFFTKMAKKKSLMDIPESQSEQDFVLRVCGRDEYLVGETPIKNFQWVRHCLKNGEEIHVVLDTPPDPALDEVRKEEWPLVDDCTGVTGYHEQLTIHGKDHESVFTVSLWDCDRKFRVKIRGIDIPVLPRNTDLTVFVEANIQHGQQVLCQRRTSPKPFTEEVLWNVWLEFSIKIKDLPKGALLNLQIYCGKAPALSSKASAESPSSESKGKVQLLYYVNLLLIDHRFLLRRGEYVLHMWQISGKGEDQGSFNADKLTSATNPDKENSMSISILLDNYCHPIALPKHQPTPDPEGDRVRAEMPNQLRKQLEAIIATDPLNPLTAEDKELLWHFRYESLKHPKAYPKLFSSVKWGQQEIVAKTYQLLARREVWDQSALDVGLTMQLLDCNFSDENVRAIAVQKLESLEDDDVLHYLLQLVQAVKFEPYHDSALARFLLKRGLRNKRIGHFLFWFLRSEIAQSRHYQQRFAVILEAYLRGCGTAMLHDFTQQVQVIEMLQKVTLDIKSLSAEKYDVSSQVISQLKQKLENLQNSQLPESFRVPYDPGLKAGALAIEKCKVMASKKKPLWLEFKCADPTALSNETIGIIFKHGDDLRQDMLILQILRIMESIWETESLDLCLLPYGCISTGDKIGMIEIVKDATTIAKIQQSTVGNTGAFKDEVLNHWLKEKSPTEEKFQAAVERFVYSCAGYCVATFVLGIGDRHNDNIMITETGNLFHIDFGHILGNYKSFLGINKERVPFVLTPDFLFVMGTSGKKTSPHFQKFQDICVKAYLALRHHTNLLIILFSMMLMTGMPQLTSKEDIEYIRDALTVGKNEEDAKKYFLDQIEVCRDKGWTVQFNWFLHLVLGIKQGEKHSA

| Structure (SMILES) | IC50 [nM] |
| --- | --- |
| CC(=O)Nc1nc2c(s1)-c1c(c(C3CC3)nn1-c1ccc(C(=O)N(C)[C@@H]3CCN(C4CCCC4)C3)cc1C)CC2 | < 600 |
| CC(=O)Nc1nc2c(s1)-c1c(c(C3CC3)nn1-c1ccc(C(=O)N[C@H]3CC[C@@H](N4CCOCC4)CC3)cc1C)CC2 | < 600 |
| CCN(C(=O)c1ccc(-n2nc(C3CC3)c3c2-c2sc(NC(C)=O)nc2CC3)cc1Cl)[C@H]1CC[C@@H](N2CCCC2)CC1 | < 600 |
| CC(=O)Nc1nc2c(s1)-c1c(c(C3CC3)nn1-c1ccc(C(=O)N(C)[C@H]3CC[C@@H](N4CCCC4)CC3)c(Cl)c1)CC2 | < 600 |
| CC(=O)Nc1nc2c(s1)-c1c(c(C3CC3)nn1-c1ccc(C(=O)NC[C@@H]3CCN(CC4CCCC4)C3)c(Cl)c1)CC2 | < 600 |
| CC(=O)Nc1nc2c(s1)-c1c(c(C3CC3)nn1C1CCN(C(=O)N3CCN(C4CCCC4)CC3)CC1)CC2 | < 600 |
| CCCCN1CCN(C(=O)N2CCC(n3nc(C4CC4)c4c3-c3sc(NC(C)=O)nc3CC4)CC2)CC1 | < 600 |
| CC(=O)Nc1nc2c(s1)-c1c(c(C3CC3)nn1-c1ccc(C(=O)N3CCC(N4CCCC4)CC3)c(C)c1)CC2 | < 600 |
| CC(=O)Nc1nc2c(s1)-c1c(c(C3CC3)nn1-c1ccccc1C(F)(F)F)CC2 | < 600 |
| CC(=O)Nc1nc2c(s1)-c1c(c(C3CC3)nn1C1CCN(C(=O)N3CCC(N(C)C)CC3)CC1)CC2 | < 600 |
| CC(=O)Nc1nc2c(s1)-c1c(c(C3CC3)nn1-c1ccc(CC(=O)N[C@H]3CC[C@@H](N4CCCC4)CC3)cc1Cl)CC2 | < 600 |
| CC(=O)Nc1nc2c(s1)-c1c(c(C3CC3)nn1-c1ccc(C(=O)N(C)[C@H]3CC[C@@H](N4CCCC4)CC3)c(C)c1)CC2 | < 600 |
| CC(=O)Nc1nc2c(s1)-c1c(c(C3CC3)nn1-c1ccc(C(=O)N(C)C[C@H]3CCN(C4CCCC4)C3)c(Cl)c1)CC2 | < 600 |
| CNC(=O)Cc1ccc(-n2nc(C3CC3)c3c2-c2sc(NC(C)=O)nc2CC3)c(Cl)c1 | < 600 |
| CCCN1CCC(NC(=O)c2ccc(-n3nc(C4CC4)c4c3-c3sc(NC(C)=O)nc3CC4)cc2Cl)CC1 | < 600 |
| CC(=O)Nc1nc2c(s1)-c1c(c(C3CC3)nn1-c1ccc(C(=O)NC[C@@H]3CCCN3C3CCCC3)c(Cl)c1)CC2 | < 600 |
| CC(=O)Nc1nc2c(s1)-c1c(c(C3CC3)nn1-c1ccc(NCC3CCN(C)CC3)cc1Cl)CC2 | < 600 |
| CC(=O)Nc1nc2c(s1)-c1c(c(C3CC3)nn1C1CCN(C(=O)C3CCCCC3)CC1)CC2 | < 600 |
| CC(=O)Nc1nc2c(s1)-c1c(c(C3CC3)nn1-c1ccc(C(=O)N(C)[C@H]3CCN(C4CCCCC4)C3)c(C)c1)CC2 | < 600 |
| CC(=O)Nc1nc2c(s1)-c1c(c(C3CCC3)nn1-c1ccc(C(=O)NC3CCN(C4CCCC4)CC3)cc1Cl)CC2 | < 600 |
| CC(=O)Nc1nc2c(s1)-c1c(c(C3CC3)nn1-c1ccc(C(=O)NC3CCN(C4CCOCC4)CC3)c(Cl)c1)CC2 | < 600 |
| CC(=O)Nc1nc2c(s1)-c1c(c(C3CC3)nn1-c1ccc(C(=O)N(C)Cc3ccncc3)cc1Cl)CC2 | < 600 |
| CC(=O)Nc1nc2c(s1)-c1c(c(C3CC3)nn1-c1ccc(C(=O)N(C)[C@@H]3CCN(C4CCCC4)C3)c(C)c1)CC2 | < 600 |
| CC(=O)Nc1nc2c(s1)-c1c(c(C3CC3)nn1-c1ccc(C(=O)N(C)[C@H]3CC[C@@H](N(C)CC4CC4)CC3)cc1C)CC2 | < 600 |
| CC(=O)Nc1nc2c(s1)-c1c(c(C3CCC3)nn1-c1ccc(C(=O)N[C@H]3CC[C@@H](N4CCCCC4)CC3)cc1Cl)CC2 | < 600 |

Second part, the compound after the results:

| IC50 [nM] | Structure (SMILES) |
| --- | --- |
| < 600 | CC(=O)Nc1nc2c(s1)-c1c(c(C3CCCC3)nn1-c1ccccc1Cl)CC2 |
| < 600 | CC(=O)Nc1nc2c(s1)-c1c(c(C3CC3)nn1-c1ccc(C(=O)NC3CCN(C4CCOCC4)CC3)cc1C)CC2 |
| < 600 | CC(=O)Nc1nc2c(s1)-c1c(c(C3CC3)nn1-c1ccc(C(=O)NC3CCN(C)CC3)cc1Cl)CC2 |
| < 600 | CC(=O)Nc1nc2c(s1)-c1c(c(C3CC3)nn1-c1ccc(C(=O)N[C@@H]3CCN(C4CCCC4)C3)cc1Cl)CC2 |
| < 600 | CC(=O)Nc1nc2c(s1)-c1c(c(C3CC3)nn1-c1ccc(C(=O)NC3CCN(CC4CCCC4)CC3)c(Cl)c1)CC2 |
| < 600 | CC(=O)Nc1nc2c(s1)-c1c(c(C3CC3)nn1-c1ccc(C(=O)N(C)[C@H]3CC[C@@H](N(C)CC4CC4)CC3)cc1F)CC2 |
| < 600 | CC(=O)Nc1nc2c(s1)-c1c(c(C3CCCC3)nn1-c1ccc(C(=O)N(C)[C@H]3CC[C@@H](N4CCCC4)CC3)cc1Cl)CC2 |
| < 600 | CC(=O)Nc1nc2c(s1)-c1c(c(C3CC3)nn1-c1ccc(C(=O)N[C@H]3CC[C@@H](N4CCCC4)CC3)c(F)c1)CC2 |
| < 600 | CC(=O)Nc1nc2c(s1)-c1c(c(C3CC3)nn1-c1ccc(C(=O)N(C)[C@H]3CCN(C4CCCCC4)C3)cc1C)CC2 |
| < 600 | CC(=O)Nc1nc2c(s1)-c1c(c(C3CC3)nn1-c1ccc(C(=O)NCc3ccncc3)cc1Cl)CC2 |
| < 600 | COc1cc(-n2nc(C3CC3)c3c2-c2sc(NC(C)=O)nc2CC3)ccc1C(=O)NC1CCN(C2CCCC2)CC1 |
| < 600 | CNC(=O)c1ccc(-n2nc(C3(C)CC3)c3c2-c2sc(NC(C)=O)nc2CC3)c(Cl)c1 |
| < 600 | CC(=O)Nc1nc2c(s1)-c1c(c(C3CC3)nn1-c1ccc(C(=O)N[C@H]3CC[C@@H](N4CCOCC4)CC3)cc1Cl)CC2 |
| < 600 | CC(=O)Nc1nc2c(s1)-c1c(c(C3CC3)nn1-c1ccc(C(=O)NC3CCN(C4CCCCC4)CC3)c(F)c1)CC2 |
| < 600 | CC(=O)Nc1nc2c(s1)-c1c(c(C3CC3)nn1-c1ccc(C(=O)N(C)[C@H]3CC[C@@H](N(C)CC4CCCC4)CC3)cc1C)CC2 |
| < 600 | CC(=O)Nc1nc2c(s1)-c1c(c(C3CC3)nn1-c1ccc(C(=O)N(C)[C@H]3CC[C@@H](N4CCCC4)CC3)cc1C)CC2 |
| < 600 | CNC(=O)C1CCC(n2nc(C3CC3)c3c2-c2sc(NC(C)=O)nc2CC3)CC1 (stereo not drawn) |
| < 600 | CC(=O)Nc1nc2c(s1)-c1c(c(C3CC3)nn1-c1ccc(C(=O)N[C@H]3CC[C@@H](N(C)C)CC3)cc1Cl)CC2 |
| < 600 | COc1cc(-n2nc(C3CC3)c3c2-c2sc(NC(C)=O)nc2CC3)ccc1C(=O)N[C@H]1CC[C@@H](N2CCCC2)CC1 |
| < 600 | CC(=O)Nc1nc2c(s1)-c1c(c(C3CC3)nn1-c1ccc(C(=O)NC3CCN(CC4CCCCC4)CC3)c(C)c1)CC2 |
| < 600 | CC(=O)Nc1nc2c(s1)-c1c(c(C3(C)CC3)nn1-c1ccc(C(=O)NC3CCN(C)CC3)cc1Cl)CC2 |
| < 600 | CC(=O)Nc1nc2c(s1)-c1c(c(C3CC3)nn1-c1ccc(C(=O)N3CCC(N4CCCC4)CC3)cc1Cl)CC2 |
| < 600 | CC(=O)Nc1nc2c(s1)-c1c(c(C3CC3)nn1-c1ccc(C(=O)NC3CCN(C4CCCC4)CC3)c(F)c1)CC2 |
| < 600 | CC(=O)Nc1nc2c(s1)-c1c(c(C3CC3)nn1-c1ccc(C(=O)N[C@H]3CC[C@@H](N4CCCC4)CC3)c(C)c1)CC2 |
| < 600 | CC(=O)Nc1nc2c(s1)-c1c(c(C3CC3)nn1-c1ccc(C(=O)N(C)C[C@@H]3CCN(C4CCCC4)C3)c(Cl)c1)CC2 |
| < 600 | CCN(C(=O)c1ccc(-n2nc(C3CC3)c3c2-c2sc(NC(C)=O)nc2CC3)cc1F)[C@H]1CC[C@@H](N2CCCC2)CC1 |
| < 600 | CC(=O)Nc1nc2c(s1)-c1c(c(C3CC3)nn1-c1ccc(C(=O)N[C@H]3CC[C@@H](N(C)CC4CC4)CC3)cc1F)CC2 |
| < 600 | CC(=O)Nc1nc2c(s1)-c1c(c(C3CC3)nn1-c1ccc(N(C)C(=O)[C@H]3CC[C@@H](N4CCCC4)CC3)cc1Cl)CC2 |
